{"source": "patent US12419931B2", "about": "“Anti-cancer composition” (ACUPHARM INTERNATIONAL PROPRIETARY LIMITED, priority 2020, dated 2025)"}
{"tested_on": "cultured tissue from needle biopsy, Breast DCIS papillary neoplasm", "assay": "dose response study with cumulative cell death on cultured patient biopsy tissue (patient 19055)", "type": "cell-based, human", "details": "in vitro cultured biopsy sample, patient 19055, Breast DCIS papillary neoplasm", "protocol": "Comparative studies were performed using curcumin extract as described above (referred to as ACPJL 08), Sutherlandia leaf extract in water (referred to as ACPJL 35), Sutherlandia leaf extract in 50% ethanol and water solution (referred to as ACPJL 28), Sutherlandia leaf extract in 90% ethanol and water solution (referred to as ACPJL 07) and a combinatorial formulation using the curcumin extract and Sutherlandia leaf extract in water and alcohol according to this invention (referred to as ACPJL 20). These extracts were compared to a number of known botanical isolates with anti-cancer activity, as well as a number of known anti-cancer drugs, using a dose response design with cumulative cell death as the dependent variable. These studies were conducted on in vitro samples of cultured tissue, taken as biopsy samples from patients as part of a standard culture and testing process done in order to optimise treatment.\nA representative sample of such a study is provided herein below.\nSummary of Study of Patient with Assigned Number 19055\nPatient from whom sample was obtained was a person presenting with a diagnosis of Breast DCIS papillary neoplasm. The sample was obtained via needle biopsy, before being cultured."}
{"smiles": "COc1cc2c(Oc3ccc4[nH]c(C)cc4c3F)ncnc2cc1OCCCN1CCCC1", "note": "[Cediranib]", "overall assessment in standard culture and testing process": "potential benefit"}
{"smiles": "Nc1nc(Cl)nc2c1ncn2[C@@H]1O[C@H](CO)[C@@H](O)[C@@H]1F", "note": "[Clofarabine]", "overall assessment in standard culture and testing process": "potential benefit"}
{"smiles": "CC(=O)O[C@@]12CO[C@@H]1C[C@H](O)[C@@]1(C)C(=O)[C@H](O)C3=C(C)[C@@H](OC(=O)[C@H](O)[C@@H](NC(=O)OC(C)(C)C)c4ccccc4)C[C@@](O)([C@@H](OC(=O)c4ccccc4)[C@H]21)C3(C)C", "note": "[Docetaxel]", "overall assessment in standard culture and testing process": "potential benefit"}
{"smiles": "COc1cc2ncnc(Nc3ccc(F)c(Cl)c3)c2cc1OCCCN1CCOCC1", "note": "[Gefitinib]", "overall assessment in standard culture and testing process": "potential benefit"}
{"smiles": "O=C1c2c(O)ccc(O)c2C(=O)c2c(NCCNCCO)ccc(NCCNCCO)c21", "note": "[Mitoxantrone]", "overall assessment in standard culture and testing process": "potential benefit"}
{"smiles": "COC(=O)c1ccc2c(c1)NC(=O)/C2=C(\\Nc1ccc(N(C)C(=O)CN2CCN(C)CC2)cc1)c1ccccc1", "note": "[Nintedanib]", "overall assessment in standard culture and testing process": "good efficacy and a positive dose response curve"}
{"smiles": "CC(=O)O[C@H]1C(=O)[C@@]2(C)[C@H]([C@H](OC(=O)c3ccccc3)[C@]3(O)C[C@H](OC(=O)[C@H](O)[C@@H](NC(=O)c4ccccc4)c4ccccc4)C(C)=C1C3(C)C)[C@]1(OC(C)=O)CO[C@@H]1C[C@@H]2O", "note": "[Paclitaxel]", "overall assessment in standard culture and testing process": "potential benefit"}
{"smiles": "CC[C@]1(O)C[C@H]2CN(CCc3c([nH]c4ccccc34)[C@@](C(=O)OC)(c3cc4c(cc3OC)N(C=O)[C@H]3[C@@](O)(C(=O)OC)[C@H](OC(C)=O)[C@]5(CC)C=CCN6CC[C@]43[C@@H]65)C2)C1", "note": "[Vincristine]", "overall assessment in standard culture and testing process": "potential benefit"}
{"smiles": "CCC1=C[C@@H]2CN(C1)Cc1c([nH]c3ccccc13)[C@@](C(=O)OC)(c1cc3c(cc1OC)N(C)[C@H]1[C@@](O)(C(=O)OC)[C@H](OC(C)=O)[C@]4(CC)C=CCN5CC[C@]31[C@@H]54)C2", "note": "[Vinorelbine]", "overall assessment in standard culture and testing process": "potential benefit"}
{"smiles": "O=C(CCCCCCC(=O)Nc1ccccc1)NO", "note": "[Vorinostat]", "overall assessment in standard culture and testing process": "potential benefit"}
